From ChEMBL document CHEMBL1148993, “UV-mediated genotoxicity of furanoquinoline and of certain tryptophan-derived alkaloids” (J Nat Prod, 1983) come the findings set out here.

Series [1] has as its system CHO. Nature of the series: Genotoxicity in CHO cells assessed as chromosomal aberrations at 5.2 ppm after 60 mins in dark followed by 5 W/m'2 UV irradiation for 30 mins. The note with it: chinese hamster, 0.5 h. Type of series: toxicity, cell-based, Cricetulus griseus.
Series [2] has as its system Staphylococcus aureus. Nature of the series: Phototoxicity against Staphylococcus aureus at 16.7 ug/disk in dark. Type of series: functional. The note with it: light or radiation study, read-out: IZ.
Series [3] relates to Pseudomonas fluorescens. The series is described as follows: Phototoxicity against Pseudomonas fluorescens at 16.7 ug/disk after irradiation with W/m'2 UV light. It counts as functional. The note with it: light or radiation study, read-out: IZ.
The subject of series [4] is Saccharomyces cerevisiae. The series is described as follows: Phototoxicity against Saccharomyces cerevisiae at 16.7 ug/disk in dark. Type of series: functional. The note with it: light or radiation study, read-out: IZ.
In series [5] the test system is Bacillus subtilis. The series is described as follows: Phototoxicity against Bacillus subtilis at 16.7 ug/disk after irradiation with W/m'2 UV light. The note with it: light or radiation study, read-out: IZ. Type of series: functional.
Series [6] has as its system Pseudomonas aeruginosa. The series is described as follows: Phototoxicity against Pseudomonas aeruginosa at 16.7 ug/disk in dark. Type of series: functional. The note with it: light or radiation study, read-out: IZ.
The test system of series [7] is CHO. The series is described as follows: Genotoxicity in CHO cells assessed as chromosomal aberrations at 83.5 ppm after 60 mins in dark followed by 5 W/m'2 UV irradiation for 30 mins. Type of series: toxicity, cell-based, Cricetulus griseus. The note with it: chinese hamster, 0.5 h.
For series [8], the system named is Enterococcus faecalis. Nature of the series: Phototoxicity against Streptococcus faecalis at 16.7 ug/disk in dark. Type of series: functional. The note with it: light or radiation study, read-out: IZ.
Series [9] concerns Pseudomonas fluorescens. The series is described as follows: Phototoxicity against Pseudomonas fluorescens at 16.7 ug/disk in dark. Type of series: functional. The note with it: light or radiation study, read-out: IZ.
The subject of series [10] is Escherichia coli. Nature of the series: Phototoxicity against Escherichia coli at 16.7 ug/disk after irradiation with W/m'2 UV light. It counts as functional. The note with it: light or radiation study, read-out: IZ.
In series [11] the test system is CHO. The series is described as follows: Genotoxicity in CHO cells assessed as chromosomal aberrations at 41.7 ppm after 60 mins in dark followed by 5 W/m'2 UV irradiation for 30 mins. Type of series: toxicity, cell-based, Cricetulus griseus. The note with it: chinese hamster, 0.5 h.
For series [12], the system named is Pseudomonas aeruginosa. The series is described as follows: Phototoxicity against Pseudomonas aeruginosa at 16.7 ug/disk after irradiation with W/m'2 UV light. Type of series: functional. The note with it: light or radiation study, read-out: IZ.
For series [13], the system named is Saccharomyces cerevisiae. The series is described as follows: Phototoxicity against Saccharomyces cerevisiae at 16.7 ug/disk after irradiation with W/m'2 UV light. It counts as functional. The note with it: light or radiation study, read-out: IZ.
Series [14] relates to CHO. The series is described as follows: Genotoxicity in CHO cells assessed as chromosomal aberrations at 20.8 ppm after 60 mins in dark followed by 5 W/m'2 UV irradiation for 30 mins. It counts as toxicity, cell-based, Cricetulus griseus. The note with it: chinese hamster, 0.5 h.
For series [15], the system named is CHO. The series is described as follows: Genotoxicity in CHO cells assessed as chromosomal aberrations at 10.4 ppm after 60 mins in dark followed by 5 W/m'2 UV irradiation for 30 mins. Type of series: toxicity, cell-based, Cricetulus griseus. The note with it: chinese hamster, 0.5 h.
The test system of series [16] is Staphylococcus aureus. Nature of the series: Phototoxicity against Staphylococcus aureus at 16.7 ug/disk after irradiation with W/m'2 UV light. The note with it: light or radiation study, read-out: IZ. It counts as functional.
Series [17] concerns CHO. The series is described as follows: Genotoxicity in CHO cells assessed as mitotic inhibition at 2.6 ppm after 60 mins in dark followed by 5 W/m'2 UV irradiation for 30 mins. It counts as toxicity, cell-based, Cricetulus griseus. The note with it: chinese hamster, 0.5 h.
Series [18] relates to Candida albicans. The series is described as follows: Phototoxicity against Candida albicans at 16.7 ug/disk in dark. Type of series: functional. The note with it: light or radiation study, read-out: IZ.
For series [19], the system named is Enterococcus faecalis. Nature of the series: Phototoxicity against Streptococcus faecalis at 16.7 ug/disk after irradiation with W/m'2 UV light. Type of series: functional. The note with it: light or radiation study, read-out: IZ.
Series [20] deals with Candida albicans. Nature of the series: Phototoxicity against Candida albicans at 16.7 ug/disk after irradiation with W/m'2 UV light. Type of series: functional. The note with it: light or radiation study, read-out: IZ.
Series [21] deals with Escherichia coli. Nature of the series: Phototoxicity against Escherichia coli at 16.7 ug/disk in dark. The note with it: light or radiation study, read-out: IZ. It counts as functional.
Series [22] has as its system CHO. The series is described as follows: Genotoxicity in CHO cells assessed as chromosomal aberrations at 83.5 ppm after 90 mins in dark. It counts as toxicity, cell-based, Cricetulus griseus. The note with it: chinese hamster, 1.5 h.
Series [23] concerns Bacillus subtilis. The series is described as follows: Phototoxicity against Bacillus subtilis at 16.7 ug/disk in dark. Type of series: functional. The note with it: light or radiation study, read-out: IZ.

Consider `COc1cc2nccc3c4ccccc4n(c1=O)c23` [5-METHOXYCANTHINONE], for which the Activity result is reported as “Toxic” in [1]; “Toxic” in [7]; “Toxic” in series [11]; “Toxic” in series [14]; “Toxic” in [15]; “Active” in [17]. The Activity in [22] was determined as 0%. Moreover, the zone of inhibition at 16.7 µg/disc is 0 mm in series [2]; 0 mm in series [3]; 0 mm in [4]; 8 mm in series [5]; 0 mm in [6]; 0 mm in series [8]. For the same molecule, the zone of inhibition at 16.7 µg/disc came out at 0 mm in [9]; 7 mm in [10]; 0 mm in [12]; 6 mm in [13]; 8 mm in series [16]; 0 mm in [18]. Also, the zone of inhibition at 16.7 µg/disc in series [19] turned out to be 0 mm; in series [20] it was 12 mm; in [21] it was 0 mm; in series [23], 8 mm.
